Entries after “also recorded” stand apart in the source; their conditions may differ.
Key:
293HGLVP/CrePr cells = experiment: RU486-induced CrePr activation of transfected IL-1β^XAT; type: cell-based, human
Protocol: Neurobiol Aging 23:977-84] and the expression of IL-1β and lacZ was evaluated following RU486 (10^-7M) administration.
Mol Ther 8: 790-95]. […] Please refer to FIG. 3 for summary of the experiment.

[1] = system: primary rat endothelial cell cultures; experiment: Regulation of inflammation-related genes by IL-1β with or without indomethacin in endothelial cells; type: cell-based
Protocol: The effects of IL-1β were evaluated in vitro utilizing primary rat endothelial cell cultures as a representative rodent cell type. In this experiment, murine IL-1β (10 ng/mL) was administered exogenously to cultured primary cells, and subsequently examined the regulation of several inflammation-related genes at the transcript level over the course of 72 hours. These molecules include (A) the inducible isoform of cyclooxygenase (COX-2), intercellular adhesion molecule-1 (ICAM-1) and monocyte chemoattractant protein-1 (MCP-1), as well as (B) the […]. Panel (C) depicts enzyme activity levels of MMP-2 and MMP-9 as evaluated by zymography.
The regulation of pro-collagen IV was also included in the study as control (not an inflammatory gene)—Panel B.
Mol Ther 8: 790-95], rat endothelial cells were employed as a representative rodent model to investigate the effects of IL-1β on the regulation of ICAM-1, MCP-1, MMP-2 and MMP-9 at the transcriptional level (mRNA) as well as the enzyme activity level (zymography).
Non-steroidal anti-inflammatory drugs (NSAIDS) are inhibitors of cyclooxygenase, a rate-limiting enzyme in the production of prostaglandins. Indomethacin, a prototype NSAID often employed in laboratory studies as well as in the hospital setting, has been evaluated for the potential to modulate the inflammatory response elicited by pro-inflammatory cytokines, such as IL-1β. To this end, rodent cells were utilized as a model to study the interaction between IL-1β, and indomethacin in vitro [Kyrkanides S, et al. (2000).

C57BL/6 mice = conditions: morphine intraperitoneal 30 min prior to formalin injection
adult mice = experiment: IL-1β injection into the cisterna magna: CGRP and GFAP IHC; type: in vivo, mouse; conditions: 10 ng in 2 μl into cisterna magna
Protocol: FIG. 51 whose IL-1β injection into the cisterna magna induces neuronal excitation and astrocyte activation. Recombinant IL-1β was injected into the cisterna magna of adult mice (10 ng in 2 μl of aqueous solution). Neuronal excitation was evaluated by CGRP and astrocyte activation by GFAP IHC. (A) The saline-injected mouse is characterized by lack of CGRP expression at the main sensory nucleus. […] GFAP immunohistochemistry in (C) control and (D) experimental mice.

[2] = INDO + IL-1β simultaneously vs IL-1β alone (FIG. 7)
[3] = murine IL-1β 10 ng/mL, over 72 hours (FIG. 6)
[4] = recombinant IL-1β alone (FIG. 7)

Molecule: CC#C[C@]1(O)CC[C@H]2[C@@H]3CCC4=CC(=O)CCC4=C3[C@@H](c3ccc(N(C)C)cc3)C[C@@]21C [RU486, mifepristone]
- IL-1β and lacZ mRNA (RT-PCR) (293HGLVP/CrePr cells; RU486 10^-7M, IL-1β^XAT transiently transfected): up-regulation
- secreted IL-1β protein in supernatant media (ELISA for human IL-1β) (293HGLVP/CrePr cells; RU486-treated cells): significantly higher levels
- IL-1β^XAT DNA recombination (293HGLVP/CrePr cells; RU486 administration following IL-1β^XAT transfection): DNA excisional recombination
- number of X-gal positive cells (β-galactosidase reporter) (293HGLVP/CrePr cells; RU486 in culture media vs naïve cells): significant increase

Molecule: COc1ccc2c(c1)c(CC(=O)O)c(C)n2C(=O)c1ccc(Cl)cc1 [indomethacin]
- ICAM-1, MCP-1 and MMP-9 transcript levels [1, 2]: further increased
- collagenase activity of MMP-2 and MMP-9 [1, 2]: further increased
- expression of inflammatory mediators induced by IL-1β ([1]; indomethacin with IL-1β, rodent cells in vitro (FIG. 7)): further exacerbated

Molecule: CN1CC[C@]23c4c5ccc(O)c4O[C@H]2[C@@H](O)C=C[C@H]3[C@H]1C5 [morphine]
- orofacial grooming in formalin-challenged mice (C57BL/6 mice): normalized; also recorded: attenuation of orofacial grooming in formalin-challenged mice to near normal levels

B1: IL-1β: recombinant IL-1β cytokine administered exogenously to cells or injected into the cisterna magna (protein, UniProt P10749 118-269, looked up)
Interleukin-1 beta: VPIRQLHYRLRDEQQKSLVLSDPYELKALHLNGQNINQQVIFSMSFVQGEPSNDKIPVALGLKGKNLYLSCVMKDGTPTLQLESVDPKQYPKKKMEKRFVFNKIEVKSKVEFESAEFPNWYISTSQAEHKPVFLGNNSGQDIIDFTMESVSS
- MMP-2 enzyme activity (zymography) [1, 3]: increased with time
- mRNA levels of MMP-2 [1, 3]: not altered
- synthesis of COX-2, MCP-1, ICAM-1 and MMP-9 (mRNA) [1, 3]: upregulated
- enzyme activity of MMP-2 and MMP-9 (zymography) [1, 4]: upregulated
- transcriptional expression of ICAM-1, MCP-1 and MMP-9 (RT-PCR) [1, 4]: induced
- astrocyte activation (GFAP IHC) in brain stem (adult mice): activation of astrocytes
- CGRP expression at main sensory nucleus (neuronal excitation) (adult mice; vs saline): pronounced CGRP immunoreactivity

Reference: patent US20090217396A1, “Inflammation models in neurodegenerative and arthritic disorders” (priority 2004, published 2009)
